{
  "source": "patent US9086405B2",
  "about": "“Animal stroke model” (UNIVERSITY OF PRINCE EDWARD ISLAND, priority 2010, dated 2015)",
  "key": {"male Sprague-Dawley rats [1]": {"tested_on": "male Sprague-Dawley rats", "assay": "Suture-induced \"permanent\" (6-hour) MCAO, infarct volume by TTC staining", "assay_type": "in vivo, rat", "conditions": "for infarct size: p<0.05, FIG. 6"}, "male Sprague-Dawley rats [2]": {"tested_on": "male Sprague-Dawley rats", "assay": "Suture-induced MCAO (30 minutes) followed by 5.5 hours of reperfusion, infarct volume by TTC staining", "assay_type": "in vivo, rat", "conditions": "for infarct size / neuroprotection (infarct volume): 5.5 hours reperfusion; for infarct size: p<0.05, FIG. 7; for neuroprotective effect (infarct volume): vs vehicle, FIG. 9; for neuroprotection (infarct volume): inosine 16 mg/kg after 30 mins of occlusion prior to suture removal"}},
  "note": "“Also recorded” adds a separate entry of the source.",
  "data": [
    {"compound": "CC1=NN(c2ccccc2)C(=O)C1", "note": "[edaravone]", "values": [
      {"measurement": "infarct size", "setting": "male Sprague-Dawley rats [1]; edaravone 10, 20 or 40 mg/kg i.v. 30 minutes prior to 6 hours of suture induced-MCAO, vs vehicle 50% DMSO in saline", "result": "significant decreases in infarct size; also recorded: significant levels of neuroprotection"},
      {"measurement": "infarct size", "setting": "male Sprague-Dawley rats [2]; edaravone 5, 10 or 20 mg/kg i.v. after 30 minutes of MCAO (immediately prior to suture removal), vs 50% DMSO in saline", "result": "significant decreases in infarct size; also recorded: showed neuroprotective abilities"},
      {"measurement": "infarct size", "setting": "male Sprague-Dawley rats [2]; edaravone 5, 10 or 20 mg/kg i.v. after 30 minutes of MCAO (immediately prior to suture removal), vs 50% DMSO in saline, listed as Edaravone", "result": "very powerful neuroprotection"}
    ]},
    {"compound": "Nc1nc2c(ncn2[C@@H]2O[C@H](CO)[C@@H](O)[C@H]2O)c(=O)[nH]1", "note": "[guanosine]", "values": [
      {"measurement": "infarct volume", "setting": "male Sprague-Dawley rats [1]; guanosine 1, 2, 4, 8 or 16 mg/kg intraperitoneally 30 minutes prior to \"permanent\" (6-hour) occlusion, FIG. 8", "result": "decrease in infarct volume; also recorded: reduced infarct size"},
      {"measurement": "neuroprotective effect (infarct volume)", "setting": "male Sprague-Dawley rats [2]; guanosine 16 mg/kg injected 30 minutes (+30) after occlusion, immediately prior to suture removal", "result": "greatest benefit; also recorded: most prominent"},
      {"measurement": "neuroprotective effect (infarct volume)", "setting": "male Sprague-Dawley rats [2]; guanosine 16 mg/kg injected 60 minutes (+60) from start of MCAO, 30 minutes post-suture removal", "result": "significant benefit; also recorded: significant neuroprotection"},
      {"measurement": "infarct volume", "setting": "male Sprague-Dawley rats [2]; guanosine 1, 2, 4, 8 or 16 mg/kg intraperitoneally 30 minutes after MCAO (prior to suture removal), 5.5 h reperfusion, FIG. 8", "result": "dose-dependent decrease in infarct volume"}
    ]},
    {"compound": "OC[C@H]1O[C@@H](n2cnc3c(O)ncnc32)[C@H](O)[C@@H]1O", "note": "[inosine]", "values": [
      {"measurement": "neuroprotection (infarct volume)", "setting": "male Sprague-Dawley rats [2]; FIG. 8", "result": "No neuroprotection"},
      {"measurement": "neuroprotection (infarct volume)", "setting": "male Sprague-Dawley rats [2]; FIG. 8, listed as Inosine", "result": "did not cause neuroprotection"}
    ]},
    {"compound": "estrogen", "values": [
      {"measurement": "infarct size", "setting": "male Sprague-Dawley rats [1]; estrogen 1×10-2 mg/kg i.v. 30 minutes prior to 6 hours of suture induced-MCAO, vs estrogen vehicle (saline)", "result": "significant decrease in infarct size; also recorded: significant levels of neuroprotection"},
      {"measurement": "infarct size", "setting": "male Sprague-Dawley rats [2]; estrogen 1×10-2 mg/kg i.v. 30 minutes after MCAO (immediately prior to suture removal), vs saline", "result": "significant decrease in infarct size"},
      {"measurement": "infarct size", "setting": "male Sprague-Dawley rats [2]; estrogen 1×10-2 mg/kg i.v. 30 minutes after MCAO (immediately prior to suture removal), vs saline, listed as Estrogen", "result": "showed neuroprotective abilities"}
    ]}
  ]
}
